Assay results published in patent US20260242391A1 (priority 2023, published 2026).
pEC50, pIC50: −log10 of the molar value.

Legend:
HL-60 = HL-60 differentiation potency; format: cell-based; details: Homo sapiens
in vitro = details: human

Row | pEC50 (HL-60) | pIC50 (in vitro) | Structure (SMILES)
1 | 5.93 | < 4.70 | C[C@H]1[C@@H](OCC23CCC(C(=O)O)(CC2)CC3)O[C@@H]2O[C@@]3(C)CC[C@H]4[C@H](C)CC[C@@H]1[C@@]24OO3 [Compound 75, 4-((((3R,5aS,6R, 8aS,9R,10S,12R, 12aR)-3,6,9-trimethyldeca-hydro-12H-3,12-epoxy[1,2]dioxepino[4,3-i]isochromen-10-yl)oxy)methyl) bicyclo[2.2.2] octane-1-carboxylic acid]
2 | 5.61 | 5.45 | C[C@H]1[C@H](NC2CS(=O)(=O)C2)O[C@@H]2O[C@@]3(C)CC[C@H]4[C@H](C)CC[C@@H]1[C@@]24OO3 [Compound 52, 3-(((3R,5aS,6R,8aS, 9R,10R,12R, 12aR)-3,6,9-trimethyldeca-hydro-12H-3,12-epoxy[1,2]dioxepino[4,3-i]isochromen-10-yl)amino) thietane 1,1-dioxide]
3 | < 4.70 | < 4.70 | COC(=O)[C@@H]1CCN(CC[C@H]2O[C@@H]3O[C@@]4(C)CC[C@H]5[C@H](C)CC[C@@H]([C@H]2C)[C@@]35OO4)C1 [Compound 70, methyl (R)-1-(2-((3R,5aS,6R,8aS, 9R,10R,12R, 12aR)-3,6,9-trimethyldeca-hydro-12H-3,12-epoxy[1,2]dioxepino[4,3-i]isochromen-10-yl)ethyl) pyrrolidine-3-carboxylate]
4 | 7.81 | 5.26 | C[C@H]1[C@@H](Oc2ccc(C(C)(C)C(=O)O)cc2)O[C@@H]2O[C@@]3(C)CC[C@H]4[C@H](C)CC[C@@H]1[C@@]24OO3 [Compound 126, 2-methyl-2-(4-(((3R,5aS,6R,8aS, 9R,10S,12R, 12aR)-3,6,9-trimethyldeca-hydro-12H-3,12-epoxy[1,2]dioxepino[4,3-i]isochromen-10-yl)oxy)phenyl) propanoic acid]
5 | 5.47 | 4.98 | C[C@H]1[C@H](Oc2ccc(C(=O)C(=O)O)cc2)O[C@@H]2O[C@@]3(C)CC[C@H]4[C@H](C)CC[C@@H]1[C@@]24OO3 [Compound 129, 2-oxo-2-(4-(((3R,5aS,6R,8aS, 9R,10R,12R, 12aR)-3,6,9-trimethyldeca-hydro-12H-3,12-epoxy[1,2]dioxepino[4,3-i]isochromen-10-yl)oxy)phenyl) acetic acid]
6 | 6.91 | < 4.70 | C[C@H]1[C@H](OCCCc2ccc(C(=O)O)cc2)O[C@@H]2O[C@@]3(C)CC[C@H]4[C@H](C)CC[C@@H]1[C@@]24OO3 [Compound 21, 4-(3-(((3R,5aS,6R,8aS, 9R,10R,12R, 12aR)-3,6,9-trimethyldeca-hydro-12H-3,12-epoxy[1,2]dioxepino[4,3-i]isochromen-10-yl)oxy)propyl) benzoic acid]
7 | 6.46 | 6.45 | CNC(=O)CCN[C@@H]1O[C@@H]2O[C@@]3(C)CC[C@H]4[C@H](C)CC[C@@H]([C@H]1C)[C@@]24OO3 [Compound 95, N-methyl-3-(((3R,5aS,6R,8aS, 9R,10R,12R, 12aR)-3,6,9-trimethyldeca-hydro-12H-3,12-epoxy[1,2]dioxepino[4,3-i]isochromen-10-yl)amino) propanamide]
8 | 5.84 | 5.36 | C[C@H]1[C@H](NCc2cnn(C)c2)O[C@@H]2O[C@@]3(C)CC[C@H]4[C@H](C)CC[C@@H]1[C@@]24OO3 [Compound 46, (3R,5aS,6R,8aS, 9R,10R,12R, 12aR)-3,6,9-trimethyl-N-((1-methyl-1H-pyrazol-4-yl)methyl)decahydro-12H-3,12-epoxy[1,2] dioxepino[4,3-i] isochromen-10-amine]
9 | 6.80 | 4.78 | C[C@H]1[C@@H](OC(C)(C)[C@H]2CC[C@@H](C(=O)O)CC2)O[C@@H]2O[C@@]3(C)CC[C@H]4[C@H](C)CC[C@@H]1[C@@]24OO3 [Compound 131, (1R,4s)-4-(2-(((3R,5aS,6R,8aS, 9R,10S,12R, 12aR)-3,6,9-trimethyldeca-hydro-12H-3,12-epoxy[1,2]dioxepino[4,3-i]isochromen-10-yl)oxy)propan-2-yl)cyclohexane-1-carboxylic acid]
10 | 7.05 | 5.85 | C[C@H]1[C@@H](OCc2ccc(C(=O)O)nc2)O[C@@H]2O[C@@]3(C)CC[C@H]4[C@H](C)CC[C@@H]1[C@@]24OO3 [Compound 13, 5-((((3R,5aS,6R, 8aS,9R,10S,12R, 12aR)-3,6,9-trimethyldeca-hydro-12H-3,12-epoxy[1,2]dioxepino[4,3-i]isochromen-10-yl)oxy)methyl) picolinic acid]
11 | 6.56 | < 4.70 | C[C@H]1[C@@H](OCC(C(=O)O)c2ccccc2)O[C@@H]2O[C@@]3(C)CC[C@H]4[C@H](C)CC[C@@H]1[C@@]24OO3 (stereo partly drawn) [Compound 172, 2-phenyl-3-(((3R,5aS,6R,8aS, 9R,10S,12R, 12aR)-3,6,9-trimethyldeca-hydro-12H-3,12-epoxy[1,2]dioxepino[4,3-i]isochromen-10-yl)oxy) propanic acid]
12 | 7.95 | 7.97 | C[C@H]1[C@@H](OCc2ccc3c(c2)OC(F)(F)O3)O[C@@H]2O[C@@]3(C)CC[C@H]4[C@H](C)CC[C@@H]1[C@@]24OO3 [Compound 1, (3R,5aS,6R,8aS, 9R,10S,12R, 12aR)-10-((2,2-difluorobenzo[d] [1,3]dioxol-5-yl)methoxy)-3,6,9-trimethyldeca-hydro-12H-3,12-epoxy[1,2] dioxepino[4,3-i]isochromene]
13 | 7.03 | 5.59 | C[C@H]1[C@@H](OCc2ccnc(C(=O)O)c2)O[C@@H]2O[C@@]3(C)CC[C@H]4[C@H](C)CC[C@@H]1[C@@]24OO3 [Compound 15, 4-((((3R,5aS,6R, 8aS,9R,10S,12R, 12aR)-3,6,9-trimethyldeca-hydro-12H-3,12-epoxy[1,2]dioxepino[4,3-i]isochromen-10-yl)oxy)methyl) picolinic acid]
14 | 7.28 | 6.80 | C[C@H]1[C@@H](Oc2ccc(CC(=O)NC(C)(C)C)cc2)O[C@@H]2O[C@@]3(C)CC[C@H]4[C@H](C)CC[C@@H]1[C@@]24OO3 [Compound 104, N-(tert-butyl)-2-(4-(((3R,5aS,6R,8aS, 9R,10S,12R, 12aR)-3,6,9-trimethyldeca-hydro-12H-3,12-epoxy[1,2]dioxepino[4,3-i]isochromen-10-yl)oxy)phenyl) acetamide]
15 | 7.02 | < 5.00 | C[C@H]1[C@@H](Oc2ccc(CC(=O)O)cc2Cl)O[C@@H]2O[C@@]3(C)CC[C@H]4[C@H](C)CC[C@@H]1[C@@]24OO3 [Compound 16, 2-(3-chloro-4-(((3R,5aS,6R,8aS, 9R,10S,12R, 12aR)-3,6,9-trimethyldeca-hydro-12H-3,12-epoxy[1,2]dioxepino[4,3-i]isochromen-10-yl)oxy)phenyl) acetic acid]
16 | 5.24 | < 4.70 | C[C@H]1[C@H](OCC(=O)N2C[C@H]3[C@@H]([C@H]2C(=O)O)C3(C)C)O[C@@H]2O[C@@]3(C)CC[C@H]4[C@H](C)CC[C@@H]1[C@@]24OO3 [Compound 162, (1R,2S,5S)-6,6-dimethyl-3-(2-(((3R,5aS,6R,8aS, 9R,10R,12R, 12aR)-3,6,9-trimethyldeca-hydro-12H-3,12-epoxy[1,2]dioxepino[4,3-i]isochromen-10-yl)oxy)acetyl)-3-azabicyclo[3.1.0] hexane-2-carboxylic acid]
17 | 6.93 | 5.08 | C[C@H]1[C@@H](Oc2cccc(CC(=O)O)c2)O[C@@H]2O[C@@]3(C)CC[C@H]4[C@H](C)CC[C@@H]1[C@@]24OO3 [Compound 20, 2-(3-(((3R,5aS,6R, 8aS,9R,10S,12R, 12aR)-3,6,9-trimethyldeca-hydro-12H-3,12-epoxy[1,2]dioxepino[4,3-i]isochromen-10-yl)oxy)phenyl) acetic acid]
18 | 6.32 | < 4.70 | C[C@H]1[C@@H](OCc2cccc(CC(=O)O)c2)O[C@@H]2O[C@@]3(C)CC[C@H]4[C@H](C)CC[C@@H]1[C@@]24OO3 [Compound 34, 2-(3-((((3R,5aS,6R, 8aS,9R,10S,12R, 12aR)-3,6,9-trimethyldeca-hydro-12H-3,12-epoxy[1,2]dioxepino[4,3-i]isochromen-10-yl)oxy)methyl)phenyl)acetic acid]
19 | 6.65 | < 4.70 | C[C@H]1[C@@H](OC[C@H]2CCC[C@@H](C(=O)O)C2)O[C@@H]2O[C@@]3(C)CC[C@H]4[C@H](C)CC[C@@H]1[C@@]24OO3 [Compound 135, (1R,3S)-3-((((3R,5aS,6R, 8aS,9R,10S,12R, 12aR)-3,6,9-trimethyldeca-hydro-12H-3,12-epoxy[1,2]dioxepino[4,3-i]isochromen-10-yl)oxy)methyl) cyclohexane-1-carboxylic acid]
20 | < 4.70 | < 4.70 | C[C@H]1[C@@H](OCC(=O)N2C[C@@H](O)C[C@H]2C(=O)O)O[C@@H]2O[C@@]3(C)CC[C@H]4[C@H](C)CC[C@@H]1[C@@]24OO3 [Compound 160, (2S,4S)-4-hydroxy-1-(2-(((3R,5aS,6R,8aS, 9R,10S,12R, 12aR)-3,6,9-trimethyldeca-hydro-12H-3,12-epoxy[1,2]dioxepino[4,3-i]isochromen-10-yl)oxy)acetyl) pyrrolidine-2-carboxylic acid]
21 | 6.10 | < 4.70 | C[C@H]1[C@@H](OC2C[C@H]3CC(C(=O)O)C[C@@H]23)O[C@@H]2O[C@@]3(C)CC[C@H]4[C@H](C)CC[C@@H]1[C@@]24OO3 (stereo partly drawn) [Compound 157, (1R,5R)-6-(((3R,5aS,6R,8aS, 9R,10S,12R, 12aR)-3,6,9-trimethyldeca-hydro-12H-3,12-epoxy[1,2]dioxepino[4,3-i]isochromen-10-yl)oxy)bicyclo [3.2.0]heptane-3-carboxylic acid]
22 | 7.54 | 5.61 | C[C@H]1[C@@H](Oc2ccc(C3(C(=O)O)CC3)cc2)O[C@@H]2O[C@@]3(C)CC[C@H]4[C@H](C)CC[C@@H]1[C@@]24OO3 [Compound 124, 1-(4-(((3R,5aS,6R,8aS, 9R,10S,12R, 12aR)-3,6,9-trimethyldeca-hydro-12H-3,12-epoxy[1,2]dioxepino[4,3-i]isochromen-10-yl)oxy)phenyl) cyclopropane-1-carboxylic acid]
23 | 5.62 | < 4.70 | Cc1cc(CO[C@@H]2O[C@@H]3O[C@@]4(C)CC[C@H]5[C@H](C)CC[C@@H]([C@H]2C)[C@@]35OO4)ccc1C(=O)O [Compound 51, 2-methyl-4-((((3R,5aS,6R,8aS, 9R,10R,12R, 12aR)-3,6,9-trimethyldeca-hydro-12H-3,12-epoxy[1,2]dioxepino[4,3-i]isochromen-10-yl)oxy)methyl) benzoic acid]
